Data on one molecule can be found in publication PMC8599855, “Detection of cancer stem cells by EMT-specific biomarker-based peptide ligands” (Scientific Reports, 2021).

One data set has as its system SAS-EGFP-Fluc tumor. Nature of the data set: SAS xenograft mouse model: tumor burden by bioluminescence, CD44 in excised tumors. It is filed as in vivo. As for the experimental part:
Frozen tissues sections or cell culture slides were fixed in 4% paraformaldehyde, washed with PBS and permeated with 0.1% Triton X-100 for 5 min before blocking with 20% FBS for 10 min at 37 °C, followed by the incubation with anti-vimentin antibody (cat. MAB3400, Millipore, Bedford, MA, USA) at 4 °C overnight. Sections were washed three times in PBS, each wash lasting 5 min then stained with Cy5-conjugated goat anti- mouse IgG (1:1000, cat. ab6563, Abcam, Cambridge, UK) for 1 h in the dark. All slides were mounted with VECTASHIELD Mounting Medium with DAPI (cat. H-1200, Vector Labs, Burligame, CA, USA) and covered with cover glasses before visualization under a laser-scanning confocal microscope (Zeiss LSM 880, Jena, Germany) with Zen Blue software (ZEISS, Jena, Germany).
All animal procedures were performed in accordance with the Guide for Care and Use of Laboratory Animals and National Yang-Ming University’s IACUC number was 1080110. Immunodeficient male mice (BALB/cAnNCrj-nu/nu, six weeks old, 20 gm) were provided by National Laboratory Animal Center (NLAC), NARLabs, Taiwan. Mice were group-housed (6 animals per cage) in individually ventilated cages (IVC) systems and had unlimited access to food and water. […] For establishment of xenografts, 2 × 10^6 SAS-EGFP-Fluc cells in 100 μL phosphate-buffered saline (PBS) were injected subcutaneously into the animal's right shoulder and 2 × 10^6 SAS-wt cells were injected into the left leg. Growth of the implanted tumors was monitored twice a week and tumor volumes were estimated from caliper measurements according to the following formula: tumor volume = (lengthÍwidth^2) Í0.523. […]
Tumor-bearing mice were anaesthetized with 2% isoflurane and then injected D-luciferin (150 mg/kg body weight diluted in PBS) into the mouse peritoneum. […] The luminescent intensity at tumor sites was analyzed using living image software 3.2 (IVIS 50 Imaging System, Perkin Elmer, Waltham, MA, USA). Bioluminescent signal was recorded as mean photons/s/centimeter^2/steradian (photon/s/cm^2/sr).

In another data set the test system is SAS cells. Nature of the data set: Western blot of EMT/CSC markers after in vitro induction of EMT. It is filed as cell-based, human. As for the experimental part:
To induce the EMT of SAS cells, cells were seeded in 60 mm^2 dishes at the density of 1 × 10^6 cells/dish overnight and incubated with 1.25 and 10 μM Unc0642. After 24 h, cells were exposed under 2 Gy and 4 Gy of radiation by a RS2000 Series Biological Irradiator (Rad Source Technologies Inc, Buford, GA, USA) and replaced with fresh Unc0642 containing medium every 24 h. The expression of vimentin and E-cadherin were detected by western blotting.
Cultured cells were placed on ice, washed by ice-cold PBS and lysed using CytoBuster Protein Extraction Reagent (cat. 71,009, Bedford, MA, USA) containing Protease Inhibitor Cocktail Set I (cat. 539131, Millipore, Bedford, MA, USA). Cells were then scraped, collected in Eppendorf tubes and the sonicated for 30 min. The lysate was spun down at 12,000 g for 10 min at 4 °C. The protein content was measured using Bradford reagent (BIO-RAD, Hercules, CA, USA). The equal amounts of protein (40 μg) were separated in SDS-PAGE gels (30% Acrylamide/Bis Solution, 29:1, cat. 1610157, BIO-RAD, Hercules, CA, USA) and transferred to PVDF membranes (cat. NEF1002001PK, Perkin-Elmer life sciences, Boston, MA, USA). For immunoblotting, membranes were cut in terms of the molecular weight range prior to hybridization with primary antibody for vimentin (GTX100619, GeneTex, Irvine, CA, USA), nucleolin (GTX132778, GeneTex, Irvine, CA, USA), E-cadherin (GTX50757, GeneTex, Irvine, CA, USA) and b-actin (GTX109639, GeneTex, Irvine, CA, USA) overnight at 4 °C and then incubated with horseradish peroxidase HRP-conjugate goat anti-rabbit IgG (GeneTex, Irvine, CA, USA). Protein signals were visualized using a LumiFast Chemiluminescence Detection Kit (cat. JT96-K001S, T-Pro Biotechnology, Taiwan). Image capture was performed on an ImageQuant LAS4000 biomolecular image (GE healthcare life, Chicago, IL, USA). The intensities of protein bands were quantitated using ImageJ Gel Analysis program. Quantification of protein expression was performed by Image J. b-actin was used as loading control.
(Immunoblotting shows a protein as a band on a membrane.)

For data set [1] the following is noted: UNC0642 5 mg/kg body weight, UBC xenograft model, any time point post-treatment; cited from earlier work. The source says:
In the current study, we successfully established a protocol for EMT induction via the combination of the G9a inhibitor and low-dose IR. G9a, mainly catalyzes histone H3K9 methylation, is shown to be overexpressed in many types of cancers, including gastric cancer, ovarian cancer, head and neck cancer, etc. Higher G9a expression levels represent higher methylation levels, thus leading to the transcriptional repression of tumor-suppressor genes and are also associated with poor prognosis in patients. Liu et al. explored that snail-induced EMT and repression of E-cadherin in head and neck sq ...

For the molecule `COc1cc2c(NC3CCN(C(C)C)CC3)nc(N3CCC(F)(F)CC3)nc2cc1OCCCN1CCCC1` [Unc0642], the “Tumor growth (Fluc signal)” value is given as “clear delay in tumor growth” with SAS-EGFP-Fluc tumor (Unc0642 2.5 mg/kg i.p. every two days for 3 times, alone, versus DMSO control, day 18) and “no significant reduction was observed in Unc0642 plus IR treated mice until Day 21, but drastically dropped down on day 24” in the data set with SAS-EGFP-Fluc tumor (Unc0642 2.5 mg/kg i.p. plus 2 Gy IR, every two days for 3 times). Moreover, in the data set on SAS-EGFP-Fluc tumor (Unc0642/IR alone or Unc0642 plus IR groups versus control, IF staining), the “CD44 expression in excised tumors” value is recorded as “higher CD44 expression”. In addition, the Vimentin expression result with SAS cells (1.25 μM Unc0642, western blot) was “increased”; in the data set on SAS cells (10 μM Unc0642, western blot), “almost unchanged”. Besides, the Nucleolin level entry in the data set on SAS cells (1.25 μM Unc0642, western blot, p < 0.05) is “slightly increased”. The “Vimentin expression versus control SAS cells” value in the data set on SAS cells (2 Gy of IR and 1.25 μM Unc0642, western blot normalized to b-actin, p < 0.01) is given as “~ twofold”. Moreover, the E-cadherin protein expression result in the data set with SAS cells (Unc0642 alone, western blot) is recorded as “diminished protein expression level”. The “Body weight versus vehicle-treated group” value in data set [1] is reported as “no significant weight changes”.
